Paper PMC5994333, “-Chemical profiling and biological activity of Peperomia blanda (Jacq.) Kunth” (PeerJ, 2018)
Converted amounts (≈) assume the structure as drawn. Values belong to the molecule of their own block, whether it stands above or below them.

Assays:
[1] = FRAP ferric reducing assay; settings: for FRAP: 593 nm
Protocol: The antioxidant power of P. blanda extracts by ferric reduction was done by preparing fresh FRAP reagent from acetate buffer (pH 3.6), a solution of 10 mM TPTZ (2,4,6-tri(2-pyridyl)-s-triazine) in 40 mM HCl and a solution of 20 mM iron (III) chloride in a ratio of 10:1:1 (%v/v) ([Brand-Williams, Cuvelier & Berset, 1995]; [Mohammadzadeh et al., 2007]; [Mothana et al., 2009]; [Salazar-Aranda et al., 2011]), butylated hydroxytoluene (BHT), and ascorbic acid were used as controls. Then, 10 µL of plant extracts, peperomin A, ferrous sulfate (standard) and the controls were added to 300 µL FRAP reagent (triplicate) in the dark and the absorbance was measured at 593 nm. A linear standard curve was constructed using […] FeSO4. The results were represented as the ratio of the concentration of iron(III) mM over the extract dry weight (g).

[2] = DPPH free radical scavenging assay; settings: for DPPH IC50: 30 min, 517 nm
Protocol: The free radical scavenging activities of the extracts, peperomin A and phytosterol mixture were estimated using the 1,1-diphenyl-2-picryl-hydrazyl (DPPH) assay. Quantitative estimation was done in 96-well ELISA plates in triplicate. Complete of 70 µL of DMSO was brought for each well followed by 100 µL of plant extract solution or isolated tested compounds. Various concentrations of each extract and peperomin A (15.6 –1,000 µg/mL) were used. Similar concentrations of ascorbic acid were used as positive control. A total of 30 µL DPPH (3.14 X 10^−3 µM) was added to each well, then the plate was allowed to stand in the dark at 25 °C for 30 min, and the absorbance was later recorded taken at 517 nm. The free radical scavenging activity was calculated using the following equation: Free radical scavenging activity%=Abs of DPPH−Abs of sample∕Abs of DPPH×100%. where Abs is absorbance. The relationship between each concentration and its scavenging percentage was plotted, and the IC50 value was calculated by interpolation. Scavenging activity was represented by IC50 values (the extract concentration that scavenges 50% of DPPH radicals).

[3] = test system: human hepatic cell line (WRL-68); experiment: MTT cytotoxicity assay, normal WRL-68; type: cell-based; settings: normal cells
From the text: (§1) In vitro cytotoxic potency of the investigated extracts was established using the colorimetric (MTT) assay. The three cancer cell lines involved were the human breast adenocarcinoma (MCF-7), murine myelomonocytic leukaemia (WEHI-3) and human promyelocytic leukaemia (HL-60). The three normal cell lines used were the human mammary epithelial cell line (MCF10A), primary dermal fibroblasts cell line (HDFa) and the human hepatic cell line (WRL-68). All cells were from American Type Culture Collection (ATCC) and were subcultured in tissue culture flask (75 cm) with RPMI1640 media mixed with 10% fetal bovine serum and 1% penicillin–streptomycin and kept in an incubator at 5% of CO2 saturation and 37 °C. The following solutions were prepared: crude extracts (dissolved in 1% DMSO) at various concentrations (100, 50, 25, 12.5, 6.3, 3.5, 1.5 and 0 µg/mL); and peperomin A, phytosterol mixture and standard drugs (Taxol and vinblastine) as positive controls at decreasing concentrations (50, 25, 12.5, 6.3, 3.5, 1.5, and 0 µg/mL). N,N′-diphenethyloxamide was not involved in the biological assay because of the low yield obtained. Extracts were incubated with the cancer cell lines for 72 h, and peperomin A and the phytosterol mixture were incubated for 24, 48 and 72 h. After the incubation periods, 20 µL of MTT solution (5 mg/mL) was added to each well and incubated for 4 h. To dissolve the formazan crystals formed, 100 µL of DMSO was added to each well. The IC50 values were calculated from the plot of cancer cell growth versus the concentration of extracts/compounds.

[4] = test system: primary dermal fibroblasts cell line (HDFa); experiment: MTT cytotoxicity assay, normal HDFa; type: cell-based; settings: Homo sapiens, normal cells
From the text: as §1

[5] = test system: human mammary epithelial cell line (MCF10A); experiment: MTT cytotoxicity assay, normal MCF10A; type: cell-based; settings: MCF-10A, normal cells
From the text: as §1

[6] = test system: human promyelocytic leukaemia (HL-60); experiment: MTT cytotoxicity assay, HL-60; type: cell-based
From the text: as §1

[7] = test system: human breast adenocarcinoma (MCF-7); experiment: MTT cytotoxicity assay, MCF-7; type: cell-based; settings: for IC50: Homo sapiens; for Selectivity index: ratio of mean IC50 in normal MCF10a over mean IC50 in MCF-7: Table 4
From the text: as §1

[8] = test system: murine myelomonocytic leukaemia (WEHI-3); experiment: MTT cytotoxicity assay, WEHI-3; type: cell-based; settings: Mus musculus
From the text: as §1

[9] = test system: HIV-1 IIIB; settings: no reference given; cited from earlier work
[10] = test system: C8166 cell line; settings: no reference given; cited from earlier work

Compound: CC(=O)O[C@H]1C(=O)[C@@]2(C)[C@H]([C@H](OC(=O)c3ccccc3)[C@]3(O)C[C@H](OC(=O)[C@H](O)[C@@H](NC(=O)c4ccccc4)c4ccccc4)C(C)=C1C3(C)C)[C@]1(OC(C)=O)CO[C@@H]1C[C@@H]2O [Paclitaxel]
- IC50 ([3]; WRL68, 24 hr): > 50 µg/mL
- IC50 ([3]; WRL68, 48hr): > 50 µg/mL
- IC50 ([3]; WRL68, 72hr): > 50 µg/mL
- IC50 ([4]; 24 hr): > 50 µg/mL
- IC50 ([4]; 48hr): > 50 µg/mL
- IC50 ([4]; 72hr): > 50 µg/mL
- IC50 ([5]; 24 hr): > 50 µg/mL
- IC50 ([5]; 48hr): > 50 µg/mL
- IC50 ([5]; 72hr): > 50 µg/mL
- IC50 ([6]; HL-60, 24 h, 24 hr): 12.7 ± 0.4 µg/mL (≈ 14.9 µM)
- IC50 ([6]; HL-60, 48 h, 48hr): 8.67 ± 0.76 µg/mL (≈ 10.2 µM)
- IC50 ([6]; HL-60, 72 h, 72hr): 5.13 ± 0.32 µg/mL (≈ 6.01 µM)
- IC50 ([7]; MCF7, 24 h, 24 hr): 5.87 ± 0.19 µg/mL (≈ 6.87 µM)
- IC50 ([7]; MCF7, 48 h, 48hr): 4.47 ± 0.03 µg/mL (≈ 5.23 µM)
- IC50 ([7]; MCF7, 72 h, 72hr): 3.56 ± 0.34 µg/mL (≈ 4.17 µM)
- IC50 ([7]; MCF7, 72 h, 72 hr, Table 3): 3 ± 0.07 µg/mL (≈ 3.51 µM)
- IC50 ([8]; 24 hr): 3.16 ± 0.02 µg/mL (≈ 3.7 µM)
- IC50 ([8]; 48hr): 2.15 ± 0.02 µg/mL (≈ 2.52 µM)
- IC50 ([8]; 72hr): 1.9 ± 0.9 µg/mL (≈ 2.23 µM)

Compound: CC[C@]1(O)C[C@@H]2CN(CCc3c([nH]c4ccccc34)[C@@](C(=O)OC)(c3cc4c(cc3OC)N(C)[C@H]3[C@@](O)(C(=O)OC)[C@H](OC(C)=O)[C@]5(CC)C=CCN6CC[C@]43[C@@H]65)C2)C1 [Vinblastine]
- IC50 ([3]; WRL68, 24 hr): > 50 µg/mL
- IC50 ([3]; WRL68, 48hr): > 50 µg/mL
- IC50 ([3]; WRL68, 72hr): > 50 µg/mL
- IC50 ([4]; 24 hr): > 50 µg/mL
- IC50 ([4]; 48hr): > 50 µg/mL
- IC50 ([4]; 72hr): > 50 µg/mL
- IC50 ([5]; 24 hr): > 50 µg/mL
- IC50 ([5]; 48hr): > 50 µg/mL
- IC50 ([5]; 72hr): > 50 µg/mL
- IC50 ([6]; HL-60, 24 h, 24 hr): 5.91 ± 0.31 µg/mL (≈ 7.29 µM)
- IC50 ([6]; HL-60, 48 h, 48hr): 4.81 ± 0.19 µg/mL (≈ 5.93 µM)
- IC50 ([6]; HL-60, 72 h, 72hr): 2.36 ± 0.08 µg/mL (≈ 2.91 µM)
- IC50 ([6]; HL-60, 72 h, 72 hr, Table 3): 5 ± 0.01 µg/mL (≈ 6.17 µM)
- IC50 ([7]; MCF7, 24 h, 24 hr): 14.6 ± 0.16 µg/mL (≈ 18 µM)
- IC50 ([7]; MCF7, 48 h, 48hr): 7.57 ± 0.5 µg/mL (≈ 9.33 µM)
- IC50 ([7]; MCF7, 72 h, 72hr): 5.16 ± 0.42 µg/mL (≈ 6.36 µM)
- IC50 ([8]; 24 hr): 4.11 ± 0.06 µg/mL (≈ 5.07 µM)
- IC50 ([8]; 48hr): 3.56 ± 0.07 µg/mL (≈ 4.39 µM)
- IC50 ([8]; 72 hr, Table 3): 0.57 ± 0.035 µg/mL (≈ 0.703 µM)

Compound: COc1cc([C@@H](c2cc(OC)c3c(c2)OCO3)[C@@H]2COC(=O)[C@H]2C)cc(OC)c1OC [peperomin B]
- inhibitory effects on HIV-1 IIIB growth in C8166 cells (cytopathic effect, CPE) [9]: moderate inhibitory effects
- cytotoxic activity against the C8166 cell line [10]: cytotoxic activity

Continued, in another order:

- DPPH IC50 [2]: 286.64 ± 8.54 µg/mL
Compound: Cc1cc(C(C)(C)C)c(O)c(C(C)(C)C)c1 [BHT, butylated hydroxytoluene]
- FRAP [1]: 1738.80 ± 9.53 M Fe(II)/g

- DPPH IC50 [2]: 536.61 ± 6.00 µg/mL
Compound: COc1cc(C(c2cc(OC)c3c(c2)OCO3)[C@@H]2COC(=O)[C@H]2C)cc2c1OCO2 [Peperomin A]
- IC50 ([3]; WRL68, 24 hr): > 50 µg/mL
- IC50 ([3]; WRL68, 48hr): > 50 µg/mL
- IC50 ([3]; WRL68, 72hr): 41.5 ± 0.54 µg/mL (≈ 100 µM)
- IC50 ([4]; 24 hr): > 50 µg/mL
- IC50 ([4]; 48hr): > 50 µg/mL
- IC50 ([4]; 72hr): > 50 µg/mL
- IC50 ([5]; 24 hr): > 50 µg/mL
- IC50 ([5]; 48hr): > 50 µg/mL
- IC50 ([5]; 72hr): > 50 µg/mL
- ferric reducing power (in words) [1]: weak
- FRAP [1]: 20.79 ± 0.66 M Fe(II)/g
- IC50 ([6]; HL-60, 24 h, 24 hr): 43.62 ± 0.1 µg/mL (≈ 105 µM)
- IC50 ([6]; HL-60, 48 h, 48hr): 26.34 ± 0.26 µg/mL (≈ 63.6 µM)
- IC50 ([6]; HL-60, 72 h, 72hr): 16.4 ± 0.62 µg/mL (≈ 39.5 µM)
- selectivity index values for cancer cells [7]: greater than 1
- Selectivity index: ratio of mean IC50 in normal MCF10a over mean IC50 in MCF-7 ([7]; 24 hr): 1.1
- Selectivity index: ratio of mean IC50 in normal MCF10a over mean IC50 in MCF-7 ([7]; 48hr): 1.3
- Selectivity index: ratio of mean IC50 in normal MCF10a over mean IC50 in MCF-7 ([7]; 72hr): 7.4
- IC50 ([7]; MCF7, 24 h, 24 hr): 40.7 ± 0.92 µg/mL (≈ 98.3 µM)
- IC50 ([7]; MCF7, 48 h, 48hr): 9.22 ± 0.28 µg/mL (≈ 22.2 µM)
- IC50 ([7]; MCF7, 72 h, 72hr): 5.58 ± 0.47 µg/mL (≈ 13.5 µM)
- IC50 ([8]; 24 hr): 20.1 ± 0.46 µg/mL (≈ 48.5 µM)
- IC50 ([8]; 48hr): 18.7 ± 0.73 µg/mL (≈ 45.1 µM)
- IC50 ([8]; 72hr): 4.62 ± 0.03 µg/mL (≈ 11.1 µM)
- inhibitory effects on HIV-1 IIIB growth in C8166 cells (cytopathic effect, CPE) [9]: moderate inhibitory effects
- free radical scavenging activity (in words) [2]: weak
- cytotoxic activity against the C8166 cell line [10]: cytotoxic activity

- DPPH IC50 [2]: 20.40 ± 0.50 µg/mL
Compound: O=C1O[C@H]([C@@H](O)CO)C(O)=C1O [VIT C, ascorbic acid]
- FRAP [1]: 2603.90 ± 10.54 M Fe(II)/g
